Experimental data: patent publication US20080125432A1 (Devgen NV, priority 2004, published 2008)
Where two headings read alike, the source gives them in different places.

Experiments:
[1] = system: C. elegans wild-type strain N2; assay: Same C. elegans pumping assay format using wild-type strain N2; type: in vivo; details: read-out: EC50 (μM) Wild type worm N2
Description: (§1) The screening of the compounds according to the present invention has been performed in the C. elegans based high-throughput screen for Kv4.3 modulators described above. The method for testing the activity on human Kv4.3 of the compounds according to the invention with C. elegans strains expressing human Kv4.3 for their activity is the same as the method described in WO 03/097682. The method for testing the compounds on wild-type C. elegans strains not expressing human Kv4.3 is the same as the method described in WO 00/63427. Briefly, UG1755 animals have been grown in large numbers and staged young adults (no or only few eggs inside the uterus) have been harvested on the day of screening. Approximately 125 animals in 80 μl buffer have been dispensed per well of a “U shaped 96-well compound plate The compound plate contained already compound material at a final concentration of 30 μM in 0.3% DMSO. After one hour incubation 10 μl of the fluorescent label Calcein AM (CAM) have been added to achieve a final concentration of 5 μM CAM and 0.8% DMSO. After another four hours of incubation at 20° C., the drinking of C. elegans animals (or the “reaction 8 measured by the uptake of CAM) has been stopped by adding 10 μl of a 60 μM ivermectin solution. The fluorescence intensity (counts per second) has been measured 40 minutes after adding ivermectin with the Wallac plate reader at a wavelength of 535 nm (after excitation at 485 nm).
These compounds have been also tested in the same assay format using a C. elegans wild-type strain N2 and the corresponding EC50 has been calculated. The ratio of the EC50s obtained for a compound on the two strains (transgenic expressing human Kv4.3 and wild-type) gives an indication on whether said compound is acting on human Kv4.3. […]

human Kv4.3 = target: T1, human Kv4.3 (Homo sapiens, UniProt Q9UK17); assay: C. elegans based high-throughput screen for Kv4.3 modulators (pharynx pumping, Calcein AM uptake), transgenic strain UG1755; type: in vivo; details: for Ratio N2/Kv4.3: EC50 on N2 divided by EC50 on the Kv4.3 expressing strain, cut-off 1.8; for EC50: transgenic strain UG1755 expressing human Kv4.3, read-out: EC50 (μM) Kv4.3 worm
T1 construct: expressed in transfected cells; host or cells: transgenic C. elegans strain UG1755 (N2 injected with plasmid pGV8, integrated array)
T1 sequence (Q9UK17 1-655): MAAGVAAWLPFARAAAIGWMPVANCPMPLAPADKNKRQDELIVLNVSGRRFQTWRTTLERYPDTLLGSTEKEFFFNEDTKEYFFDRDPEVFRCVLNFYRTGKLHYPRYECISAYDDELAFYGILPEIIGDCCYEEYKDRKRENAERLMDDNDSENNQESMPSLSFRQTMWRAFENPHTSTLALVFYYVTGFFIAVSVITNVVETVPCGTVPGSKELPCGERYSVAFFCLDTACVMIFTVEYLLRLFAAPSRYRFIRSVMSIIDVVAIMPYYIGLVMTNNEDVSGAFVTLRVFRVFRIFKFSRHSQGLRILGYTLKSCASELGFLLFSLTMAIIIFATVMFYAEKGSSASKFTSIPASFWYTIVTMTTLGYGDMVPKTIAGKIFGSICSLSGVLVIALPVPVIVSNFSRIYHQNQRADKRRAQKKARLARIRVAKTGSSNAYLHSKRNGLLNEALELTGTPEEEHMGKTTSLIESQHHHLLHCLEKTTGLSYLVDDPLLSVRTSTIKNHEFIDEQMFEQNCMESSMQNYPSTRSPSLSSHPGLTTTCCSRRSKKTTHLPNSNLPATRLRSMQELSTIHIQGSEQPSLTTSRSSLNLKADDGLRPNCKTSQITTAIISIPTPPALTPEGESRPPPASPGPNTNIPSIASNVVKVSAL
Description: A C. elegans based high-throughput screen for Kv4.3 modulators has been used to establish an in vivo SAR (structure-activity relationships: the effect of chemical structure on biological activity) on Kv4.3 for the compounds according to the present invention.
This assay has employed a stable transgenic C. elegans strain that functionally expressed human Kv4.3 in the pharynx and a visible selection GFP maker in body-wall muscle.
The pharynx is the feeding organ of C. elegans and contracts rhythmically 3-4 times per second. The pharynx contraction is controlled by the nervous system via action potentials similar to the human myocyte and can thus be used to study human ion channel physiology in vivo in C. elegans.
Introducing the human Kv4.3 channel into the C. elegans pharynx influences the C. elegans action potential in a characteristic fashion. The additional number of potassium channels increases potassium ion efflux, enhances re-polarization and thereby shortens the action potential duration. […] The shortened action potentials of the C. elegans pharynx resulting from expression of human Kv4.3, changes the pharynx contraction-relaxation cycle and consequently reduces the pumping/feeding in these transgenic animals. This change of pumping is an end-point amenable to high-throughput screening technology. The pumping end-point can be technically translated into a high-throughput read-out by the use of a pro-fluorescent dye. The pro-fluorescent dye is taken up by C. elegans depending on its pumping activity and converted into a fluorescent dye by enzymes located in its intestines. After a defined incubation period, the change of fluorescence intensity in the intestine can be measured with a plate reader.
as §1
The active compounds have been identified and confirmed by dose-response analysis. An EC50 has been calculated and the results are listed under Table 3. Dose-response curves have been obtained at concentrations of 30 μM. EC50 has been calculated using XLfit 2.09 software package.

SMILES | EC50 ([1]; Caenorhabditis elegans) [µM] | Ratio N2/Kv4.3 (human Kv4.3) | EC50 (human Kv4.3) [µM] | EC50 [1] [µM]
Cc1nc(Nc2ccc(F)cc2)sc1C(=O)N[C@@H](C)c1ccc2ccccc2c1 [Compound 15, 2-(4-fluoro-phenylamino)-4-methyl-thiazole-5-carboxylic acid (S)-1-(naphthalen-2-yl)ethyl amide] | 24 | 2.4 | 10.1 | –
COC[C@H](Cc1ccccc1)NC(=O)c1csc(Nc2cc(C)cc(C)c2)n1 [Compound 44, 2-(3,5-dimethyl-phenylamino)-thiazole-4-carboxylic acid (S)-(1-methoxymethyl-2-phenyl-ethyl)-amide] | 39.5 | 3.5 | 11.5 | –
COc1ccc(Cl)cc1Nc1nc(C(=O)N[C@@H]2CCCC[C@H]2OCc2ccccc2)cs1 [Compound 51, 2-(5-chloro-2-methoxy-phenylamino)-thiazole-4-carboxylic acid (1R,2R)-2-(benzyloxycyclohex-1-yl) amide] | > 30 | >1.8 | 17 | –
O=C(N[C@H]1CCCC[C@@H]1OCc1ccccc1)c1csc(Nc2ccc(Cl)cc2)n1 [Compound 41, 2-(4-chloro-phenylamino)-thiazole-4-carboxylic acid (1S,2S)-2-(benzyloxycyclohex-1-yl) amide] | – | 2.2 | 22 | 48
Cc1nc(Nc2ccc(Br)cc2)sc1C(=O)N[C@H](C)c1ccc([N+](=O)[O-])cc1 [Compound 22, 2-(4-bromo-phenylamino)-4-methyl-thiazole-5-carboxylic acid (R)-1-(4-nitrophenyl)ethyl amide] | > 30 | >2.6 | 11.7 | –
Cc1nc(Nc2ccc(Br)cc2)sc1C(=O)NCc1cc(C(F)(F)F)cc(C(F)(F)F)c1 [Compound 24, 2-(4-bromo-phenylamino)-4-methyl-thiazole-5-carboxylic acid 3,5-bis-trifluoromethyl-benzylamide] | > 30 | >1.7 | 17.1 | –
Cc1cc(C)cc(Nc2nc(C(=O)N[C@H]3CCCC[C@@H]3OCc3ccccc3)cs2)c1 [Compound 46, 2-(3,5-dimethyl-phenylamino)-thiazole-4-carboxylic acid (1S,2S)-2-(benzyloxycyclohex-1-yl) amide] | 39 | 2.8 | 14 | –
C[C@@H](NC(=O)c1csc(Nc2ccc(F)cc2)n1)c1ccc([N+](=O)[O-])cc1 [Compound 36, 2-(4-fluoro-phenylamino)-thiazole-4-carboxylic acid (R)-1-(4-nitro-phenyl)ethyl amide] | 45 | 2.0 | 22.7 | –
CCCN(Cc1ccc([N+](=O)[O-])cc1)C(=O)c1csc(Nc2ccc(Cl)cc2)n1 [Compound 42, 2-(4-chloro-phenylamino)-thiazole-4-carboxylic acid (4-nitro-benzyl)-propyl-amide] | 43 | 2.0 | 21.4 | –
O=C(N[C@@H]1CCCC[C@H]1OCc1ccccc1)c1csc(Nc2ccc(F)cc2)n1 [Compound 38, 2-(4-fluoro-phenylamino)-thiazole-4-carboxylic acid (1R,2R)-2-(benzyloxycyclohex-1-yl) amide] | 44 | 2.5 | 17.3 | –
Cc1cccc(C)c1Nc1nc(C(=O)N[C@H](C)c2ccc([N+](=O)[O-])cc2)cs1 [Compound 43, 2-(2,6-dimethyl-phenylamino)-thiazole-4-carboxylic acid (R)-1-(4-nitro-phenyl)ethyl amide] | 35 | 1.8 | 18.9 | –
Cc1cc(C)cc(Nc2nc(C(=O)N[C@@H]3CCC[C@H]3OCc3ccccc3)cs2)c1 [Compound 45, 2-(3,5-dimethyl-phenylamino)-thiazole-4-carboxylic acid (1R,2R)-2-(benzyloxycyclopent-1-yl)-amide] | 37 | 28.0 | 1.3 | –
